Structures can show the parent of a compound that is named as a salt.

A word on the EC50: it is the midpoint of the concentration-response curve. One may read the IC50 as the concentration that gives 50% inhibition.

One assay relates to subgenomic HCV Replicon in HuH-7 hepatoma cells. The experiment in a line: Assay for inhibition of HCV RNA replication (subgenomic replicon, in situ ribonuclease protection SPA). It is filed as cell-based, Hepatitis C Virus. Particulars: Hepatitis C virus, Huh-7. The procedure: The compounds of the present invention were also evaluated for their ability to affect the replication of Hepatitis C Virus RNA in cultured hepatoma (HuH-7) cells containing a subgenomic HCV Replicon. The details of the assay are described below. This Replicon assay is a modification of that described in V. Lohmann, F. Korner, J-O. Koch, U. Herian, L. Theilmann, and R. Bartenschlager, “Replication of a Sub-genomic Hepatitis C Virus RNAs in a Hepatoma Cell Line,” Science 285:110 (1999).
The assay was an in situ Ribonuclease protection, Scintillation Proximity based-plate assay (SPA). 10,000-40,000 cells were plated in 100-200 μL of media containing 0.8 mg/mL G418 in 96-well cytostar plates (Amersham). Compounds were added to cells at various concentrations up to 100 μM in 1% DMSO at time 0 to 18 h and then cultured for 24-96 h. Cells were fixed (20 min, 10% formalin), permeabilized (20 min, 0.25% Triton X-100/PBS) and hybridized (overnight, 50° C.) with a single-stranded ^33P RNA probe complementary to the (+) strand NS5B (or other genes) contained in the RNA viral genome. Cells were washed, treated with RNAse, washed, heated to 65° C. and counted in a Top-Count Inhibition of replication was read as a decrease in counts per minute (cpm).
Human HuH-7 hepatoma cells, which were selected to contain a subgenomic replicon, carry a cytoplasmic RNA consisting of an HCV 5′ non-translated region (NTR), a neomycin selectable marker, an EMCV IRES (internal ribosome entry site), and HCV non-structural proteins NS3 through NS5B, followed by the 3′ NTR.
In turn, `CCOC(=O)[C@H](C)NP(=O)(OC[C@H]1O[C@@H](n2cc(-c3ccn[nH]3)c3c(N)ncnc32)[C@](C)(O)[C@@H]1O)Oc1ccccc1` (stereo in doubt) [Compound 29, Ethyl 2-{[(R)-({(2R,3S,4R,5R)-5-[4-amino-5-(1H-pyrazol-5-yl)-7H-pyrrolo[2,3-d]pyrimidin-7-yl]-3,4-dihydroxy-4-methyltetrahydrofuran-2-yl}methoxy)(phenoxy)phosphoryl]amino}propanoate] registered a half-maximal effective concentration (EC50) of under 20 µM.
On the same count and under the same terms, the result for `CCOC(=O)[C@H](C)NP(=O)(OC[C@H]1O[C@@H](n2cc(-c3ncco3)c3c(N)ncnc32)[C@](C)(O)[C@@H]1O)Oc1ccccc1` (stereo in doubt) [Compound 30, Ethyl 2-{[(R)-({(2R,3S,4R,5R)-5-[4-amino-5-(1,3-oxazol-2-yl)-7H-pyrrolo[2,3-d]pyrimidin-7-yl]-3,4-dihydroxy-4-methyltetrahydrofuran-2-yl}methoxy)(phenoxy)phosphoryl]amino}propanoate] reads under 20 µM; that for `COc1nc(-c2cn([C@@H]3O[C@H](CO)[C@@H](O)[C@@]3(C)O)c3ncnc(N)c23)cs1` [Compound 4, 5-(2-methoxy-1,3-thiazol-4-yl)-7-(2-C-methyl-β-D-ribofuranosyl)-7H-pyrrolo[2,3-d]pyrimidin-4-amine trifluoroacetate], over 50 µM; that for `Cn1cc(-c2cn([C@@H]3O[C@H](CO)[C@@H](O)[C@@]3(C)O)c3ncnc(N)c23)nn1` [Compound 8, 7-(2-C-methyl-β-D-ribofuranosyl)-5-(1-methyl-1H-1,2,3-triazol-4-yl)-7H-pyrrolo[2,3-d]pyrimidin-4-amine trifluoroacetate], 20 to 50 µM.

Still in this assay, the particulars now being: Hepatitis C virus; HuH-7 cells containing a subgenomic HCV Replicon, compounds up to 100 μM in 1% DMSO, cultured 24-96 h; read-out: EC50.
On to `C[C@@]1(O)[C@H](O)[C@@H](CO)O[C@H]1n1cc(-c2ncco2)c2c(N)ncnc21` [Compound 2, 7-(2-C-methyl-β-D-ribofuranosyl)-5-(1,3-oxazol-2-yl)-7H-pyrrolo[2,3-d]pyrimidin-4-amine], for which the concentration for a half-maximal effect (EC50) was under 20 µM.
Still for that read-out and setting: the result for `C[C@@]1(O)[C@H](O)[C@@H](CO)O[C@H]1n1cc(-c2ncccn2)c2c(N)ncnc21` [Compound 3, 7-(2-C-methyl-β-D-ribofuranosyl)-5-pyrimidin-2-yl-7H-pyrrolo[2,3-d]pyrimidin-4-amine] reads over 50 µM; that for `C[C@@]1(O)[C@H](O)[C@@H](CO)O[C@H]1n1cc(-c2ccn[nH]2)c2c(N)ncnc21` [Compound 5, 7-(2-C-methyl-β-D-ribofuranosyl)-5-(1H-pyrazol-5-yl)-7H-pyrrolo[2,3-d]pyrimidin-4-amine], 20 to 50 µM.
As to `C[C@@]1(O)[C@H](O)[C@@H](CO)O[C@H]1n1cc(-c2cn[nH]c2)c2c(N)ncnc21` [Compound 6, 7-(2-C-methyl-β-D-ribofuranosyl)-5-(1H-pyrazol-4-yl)-7H-pyrrolo[2,3-d]pyrimidin-4-amine], the EC50 is 20 to 50 µM.
The same measure, in the same setting: as for `C[C@@]1(O)[C@H](O)[C@@H](CO)O[C@H]1n1cc(-c2ncon2)c2c(N)ncnc21` [Compound 7, 7-(2-C-methyl-β-D-ribofuranosyl)-5-(1,2,4-oxadiazol-3-yl)-7H-pyrrolo[2,3-d]pyrimidin-4-amine], the figure is under 20 µM; as for `C[C@@]1(O)[C@H](O)[C@@H](CO)O[C@H]1n1cc(-c2cccs2)c2c(N)ncnc21` [Compound 9, 7-(2-C-methyl-β-D-ribofuranosyl)-5-(2-thienyl)-7H-pyrrolo[2,3-d]pyrimidin-4-amine], under 20 µM; as for `C[C@@]1(F)[C@H](O)[C@@H](CO)O[C@H]1n1cc(-c2ccn[nH]2)c2c(N)ncnc21` [Compound 21, 7-(2-deoxy-2-fluoro-2-methyl-β-D-ribofuranosyl)-5-(1H-pyrazol-5-yl)-7H-pyrrolo[2,3-d]pyrimidin-4-amine], 20 to 50 µM.
Same read-out and setting: as for `C[C@@]1(F)[C@H](O)[C@@H](CO)O[C@H]1n1cc(-c2ncco2)c2c(N)ncnc21` [Compound 22, 7-(2-deoxy-2-fluoro-2-methyl-β-D-ribofuranosyl)-5-(1,3-oxazol-2-yl)-7H-pyrrolo[2,3-d]pyrimidin-4-amine], the figure is 20 to 50 µM; as for `C[C@@]1(F)[C@H](O)[C@@H](CO)O[C@H]1n1cc(-c2ncon2)c2c(N)ncnc21` [Compound 23, 7-(2-deoxy-2-fluoro-2-methyl-β-D-ribofuranosyl)-5-(1,2,4-oxadiazol-3-yl)-7H-pyrrolo[2,3-d]pyrimidin-4-amine], 20 to 50 µM.
Still for that read-out and setting: the result for `COc1ccc(-c2cn([C@@H]3O[C@H](CO)[C@@H](O)[C@@]3(C)O)c3ncnc(N)c23)cn1` [Compound 24, 7-(2-C-methyl-β-D-ribofuranosyl)-5-(6-methoxypyridin-3-yl)-7H-pyrrolo[2,3-d]pyrimidin-4-amine] reads over 50 µM; that for `C[C@@]1(O)[C@H](O)[C@@H](CO)O[C@H]1n1nc(-c2cc[nH]n2)c2c(N)ncnc21` [Compound 25, 1-(2-C-methyl-β-D-ribofuranosyl)-3-(1H-pyrazol-3-yl)-1H-pyrazolo[3,4-d]pyrimidin-4-amine], under 20 µM; that for `C[C@@]1(O)[C@H](O)[C@@H](CO)O[C@H]1n1cc(-c2nnco2)c2c(N)ncnc21` [Compound 27, 7-(2-C-methyl-β-D-ribofuranosyl)-5-(1,3,4-oxadiazol-2-yl)-7H-pyrrolo[2,3-d]pyrimidin-4-amine], under 20 µM.

Still in this assay, the particulars now being: HuH-7 cells containing a subgenomic HCV Replicon, compounds up to 100 μM in 1% DMSO, cultured 24-96 h; read-out: EC50.
With “7-(2-C-methyl-β-D-ribofuranosyl)-5-(1-methyl-1H-tetrazol-5-yl)-7H-pyrrolo[2,3-d]pyrimidin-4-amine (A) and 7-(2-C-methyl-β-D-ribofuranosyl)-5-(2-methyl-2H-tetrazol-5-yl)-7H-pyrrolo[2,3-d]pyrimidin-4-amine (B) [Compound 1]”, the EC50 is under 20 µM.

Another assay deals with T1, HCV NS5B polymerase (Hepatitis C virus genotype 1b, UniProt P26663).
T1 construct: RNA-dependent RNA polymerase (NS5B) of the hepatitis C virus (HCV)
T1 sequence (P26663 2420-2955): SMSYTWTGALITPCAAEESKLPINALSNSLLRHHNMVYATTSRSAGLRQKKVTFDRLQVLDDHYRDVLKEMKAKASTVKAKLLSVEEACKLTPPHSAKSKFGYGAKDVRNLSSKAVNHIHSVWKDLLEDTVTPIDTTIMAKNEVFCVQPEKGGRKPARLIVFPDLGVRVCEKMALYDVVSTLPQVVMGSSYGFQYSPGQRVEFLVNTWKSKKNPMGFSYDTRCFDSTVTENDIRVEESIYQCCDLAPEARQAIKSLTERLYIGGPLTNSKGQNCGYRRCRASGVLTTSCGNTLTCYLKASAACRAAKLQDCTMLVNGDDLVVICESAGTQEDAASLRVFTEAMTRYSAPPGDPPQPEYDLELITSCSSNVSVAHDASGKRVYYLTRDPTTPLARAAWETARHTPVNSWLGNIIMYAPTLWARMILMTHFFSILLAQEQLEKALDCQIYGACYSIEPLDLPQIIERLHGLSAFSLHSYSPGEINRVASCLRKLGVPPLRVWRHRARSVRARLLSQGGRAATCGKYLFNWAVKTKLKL
The experiment in a line: Assay for inhibition of HCV NS5B polymerase (RdRp, 3H-UTP incorporation on heteromeric RNA template). It is filed as biochemical. As to conditions: heterogeneous template dCoh, 2 nM DC55-lb.BK or 10 nM DC55-2b.2, NTPs 1 uM, room temperature 2 hours. As for the experimental part: The effectiveness of the compounds of the present invention as inhibitors of HCV NS5B RNA-dependent RNA polymerase (RdRp) was measured in the following assay.
This assay was used to measure the ability of the nucleoside derivatives of the present invention to inhibit the enzymatic activity of the RNA-dependent RNA polymerase (NS5B) of the hepatitis C virus (HCV) on a heteromeric RNA template.
Assay Buffer Conditions: (52.5 μL-total/reaction)
20 nM heterogeneous template dCoh
2.5 μl/reaction inhibitor compound in H2O
The compounds were tested at various concentrations up to 100 μM final concentration. Nucleoside derivatives were pipetted into wells of a 96-well plate. The enzyme diluted in the reaction buffer was pipetted into the wells and incubated at room temperature for 10 minutes; then the template dCoh was added and incubated for 10 minutes at room temperature. The reaction was initiated by addition of a mixture of nucleotide triphosphates (NTP's), including the radiolabeled UTP, and allowed to proceed at room temperature for 2 hours. Blank samples were done omitting the dCoh template. The reaction was quenched by addition of 50 ul TCA 20% (trichloroacetic acid)/NaPPi 20 mM and the plates were put in ice for 5 minutes. Then, the mixtures were filtered onto Unifilter GF/B 96-well plates (PerkinElmer), washed with TCA 2.5%. 50 ul/well of scintillator solution (Microscint 20, PerkinElmer) were added and the plates were counted in a scintillator counter.
The percentage of inhibition was calculated according to the following equation:
% Inhibition=[1−(cpm in test reaction−cpm in blank)/(cpm in control reaction−cpm in blank)]×100.
With “7-(2-C-methyl-5-triphospho-β-D-ribofuranosyl)-5-(1-methyl-1H-tetrazol-5-yl)-7H-pyrrolo[2,3-d]pyrimidin-4-amine and 7-(2-C-methyl-5-triphospho-β-D-ribofuranosyl)-5-(2-methyl-2H-tetrazol-5-yl)-7H-pyrrolo[2,3-d]pyrimidin-4-amine [Compound 10]”, the IC50 was under 50 µM.
Same read-out and setting: the result for `C[C@@]1(O)[C@H](O)[C@@H](COP(=O)(O)OP(=O)(O)OP(=O)(O)O)O[C@H]1n1cc(-c2ncco2)c2c(N)ncnc21` [Compound 11, 7-(2-C-methyl-5-triphospho-β-D-ribofuranosyl)-5-(1,3-oxazol-2-yl)-7H-pyrrolo[2,3-d]pyrimidin-4-amine] reads under 1 µM; that for `C[C@@]1(O)[C@H](O)[C@@H](COP(=O)(O)OP(=O)(O)OP(=O)(O)O)O[C@H]1n1cc(-c2ncccn2)c2c(N)ncnc21` [Compound 12, 7-(2-C-methyl-5-triphospho-β-D-ribofuranosyl)-5-pyrimidin-2-yl-7H-pyrrolo[2,3-d]pyrimidin-4-amine], under 50 µM.
For the compound `COc1nc(-c2cn([C@@H]3O[C@H](COP(=O)(O)OP(=O)(O)OP(=O)(O)O)[C@@H](O)[C@@]3(C)O)c3ncnc(N)c23)cs1` [Compound 13, 5-(2-methoxy-1,3-thiazol-4-yl)-7-(2-C-methyl-5-triphospho-β-D-ribofuranosyl)-7H-pyrrolo[2,3-d]pyrimidin-4-amine], the IC50 was under 50 µM.
Compound `C[C@@]1(O)[C@H](O)[C@@H](COP(=O)(O)OP(=O)(O)OP(=O)(O)O)O[C@H]1n1cc(-c2cc[nH]n2)c2c(N)ncnc21` [Compound 14, 7-(2-C-methyl-5-triphospho-β-D-ribofuranosyl)-5-(1H-pyrazol-5-yl)-7H-pyrrolo[2,3-d]pyrimidin-4-amine] had an IC50 of under 1 µM.

These data come from patent publication US20110306573A1, “NUCLEOSIDE DERIVATIVES AS INHIBITORS OF VIRAL POLYMERASES” (priority 2008, published 2011).
